Where two headings read alike, the source gives them in different places.
What was measured:
[1] = test system: LPS-induced TNFα; test: Inhibition of LPS-induced TNFα in serum of mice; assay type: in vivo; conditions: Mus musculus, read-out: ED50 for inhibition of LPS-induced TNFα
Protocol: The potency of compounds to inhibit inflammation was quantified in a model in which mice were treated with lipopolysaccharide (LPS). Anti-inflammatory effects were quantified as inhibition of LPS-induced TNFα (S. R. Hyde & R. E. McCallum, Infection & Immunity, 60; 976-982 (1992)). Mice were treated i.p. with 0.5 mg/kg LPS. […] 1½ hours after LPS induction, serum was collected and mice were sacrificed. TNFα levels in serum were quantified using a commercially available Elisa-kit according to the descriptions of the supplier.

[2] = biological target: T1, recombinant human-GR (GR) (Homo sapiens, UniProt P04150); test: Glucocorticoid Receptor Competitor Assay kit (PanVera), fluorescence polarisation binding; conditions: fluorescence polarisation competition with fluormone GS1 1 nM, GR 4 nM, 90 minutes room temperature
T1 construct: purchased PanVera
T1 sequence (P04150 1-777): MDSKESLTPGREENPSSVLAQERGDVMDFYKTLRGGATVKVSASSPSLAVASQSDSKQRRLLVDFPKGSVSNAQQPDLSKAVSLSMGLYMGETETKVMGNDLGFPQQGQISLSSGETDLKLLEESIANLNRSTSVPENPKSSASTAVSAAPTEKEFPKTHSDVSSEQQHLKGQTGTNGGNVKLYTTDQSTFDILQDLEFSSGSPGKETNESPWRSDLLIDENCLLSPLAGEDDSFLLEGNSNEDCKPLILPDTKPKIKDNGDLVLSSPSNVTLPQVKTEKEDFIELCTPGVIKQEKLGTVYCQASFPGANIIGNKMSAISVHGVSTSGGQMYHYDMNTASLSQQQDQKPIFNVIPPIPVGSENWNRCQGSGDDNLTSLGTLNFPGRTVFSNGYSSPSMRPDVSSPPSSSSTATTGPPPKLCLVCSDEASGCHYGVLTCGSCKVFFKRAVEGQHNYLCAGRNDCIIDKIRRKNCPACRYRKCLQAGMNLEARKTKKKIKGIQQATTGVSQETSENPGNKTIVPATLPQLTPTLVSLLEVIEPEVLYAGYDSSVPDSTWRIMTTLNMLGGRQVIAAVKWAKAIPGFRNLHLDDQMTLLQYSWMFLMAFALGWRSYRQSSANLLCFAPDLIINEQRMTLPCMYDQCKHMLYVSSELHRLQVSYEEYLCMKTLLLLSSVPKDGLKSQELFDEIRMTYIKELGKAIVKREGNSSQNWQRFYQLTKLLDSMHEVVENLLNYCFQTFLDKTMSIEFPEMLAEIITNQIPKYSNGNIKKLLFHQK
Protocol: The affinity of compounds was tested using a Glucocorticoid Receptor Competitor Assay kit (PanVera®). Components of the kit were thawed from −80° C. on ice (Fluormone GS1, recombinant human-GR (GR)) or at room temperature (GR screening buffer, stabilising peptide and DTT). 10 mM test compounds were manually diluted to 20 μM then serially diluted to a final concentration range of 10 μM to 0.1 nM using the BioMek 2000 (Beckman-Coulter) into a black walled 384 welled plate (Matrix technologies). In the following order: fluormone GS1 (1 nM final concentration) is added to all wells excluding the buffer control wells, GR (4 nM final concentration) is added to all wells except minimum and buffer control wells, cortisol (10 μM final concentration) is added to fluormone GS1 control wells only, buffer is added to all wells to a final volume of 40 μl. The plate is covered and incubated at room temperature with agitation for 90 minutes. Readings were taken using the Analyst (LJL) in fluorescence polarisation reading mode. The MilliP ratio is calculated from cps readings obtained in parallel and perpendicular mode. The percent effect of the bound ligand is calculated at each concentration and the dose response curves plotted allowing the EC50 to be calculated. […]

[3] = mice, 0.5 mg/kg LPS i.p., compound oral or subcutaneous 1 hour before LPS, serum 1½ hours after LPS

SMILES | ED50 [1, 3] [mg/kg] | other results
Cc1nnsc1C(=O)N[C@H]1CCN2c3ccc([N+](=O)[O-])cc3N(C)c3ccccc3[C@@H]2C1 (relative stereo) [Example 31, cis-N-(1,2,3,4,10,14b-hexahydro-10-methyl-8-nitrodibenzo[b,f]pyrido[1,2-d][1,4]diazepin-2-yl)-4-methyl-1,2,3-thiadiazole-5-carboxamide] | 0.5 to 20 | 
CN1c2ccccc2[C@@H]2C[C@@H](NC(=O)C(F)(F)F)CCN2c2ccc(C(=O)Nc3ccccc3)cc21 (relative stereo) [Example 4, cis-1,2,3,4,10,14b-hexahydro-10-methyl-N-phenyl-2-(2,2,2-trifluoroacetylamino)dibenzo[b,f]pyrido[1,2-d][1,4]diazepine-8-carboxamide] | 0.5 to 20 | 
CN1c2ccccc2[C@@H]2C[C@@H](NC(=O)C(F)(F)F)CCN2c2cc(Cl)c(C#N)cc21 (relative stereo) [Example 9, cis-N-(7-chloro-8-cyano-1,2,3,4,10,14b-hexahydro-10-methyl-dibenzo-[b,f]pyrido[1,2-d][1,4]diazepin-2-yl)-2,2,2-trifluoroacetamide] |  | ED50 [1]: 0.5 to 20 mg/kg
C[C@]12C=CC(=O)C=C1CC[C@@H]1[C@@H]2[C@@H](O)C[C@@]2(C)[C@H]1CC[C@]2(O)C(=O)CO [prednisolone, reference compound] | 0.5 | 
CC#C[C@]1(O)CC[C@H]2[C@@H]3CCC4=CC(=O)CCC4=C3[C@@H](c3ccc4c(c3)OCO4)C[C@@]21C |  | EC50 [2]: 10 nM
CN1c2ccccc2[C@@H]2C[C@@H](NC(=O)C(F)(F)F)CCN2c2ccc(C#N)cc21 (relative stereo) [Example 3, cis-N-(8-cyano-1,2,3,4,10,14b-hexahydro-10-methyldibenzo[b,f]pyrido[1,2-d][1,4]diazepin-2-yl)-2,2,2-trifluoroacetamide] | 0.5 to 20 | 
CN1c2ccccc2[C@@H]2C[C@@H](NC(=O)C(F)(F)F)CCN2c2ccc([N+](=O)[O-])cc21 (relative stereo) [Example 2, cis-2,2,2-trifluoro-N-(1,2,3,4,10,14b-hexahydro-10-methyl-8-nitrodibenzo[b,f]pyrido[1,2-d][1,4]diazepin-2-yl)acetamide] | 0.5 to 20 | 
CN1c2ccccc2[C@@H]2C[C@@H](NC(=O)C(Cl)Cl)CCN2c2ccc(C#N)cc21 (relative stereo) [Example 5, cis-2,2-dichloro-N-(8-cyano-1,2,3,4,10,14b-hexahydro-10-methyldibenzo-[b,f]pyrido[1,2-d][1,4]diazepin-2-yl)acetamide] | 0.5 to 20 | 
